Values of other authors as cited in paper PMC4621754, “Parasitic diarrheal disease: drug development and targets” (Frontiers in Microbiology, 2015).
Read-outs that look alike come from different tables or passages of the source. Values belong to the molecule of their own block, whether it stands above or below them.

Key:
E. histolytica PPi-PFK = system: E. histolytica PPi-PFK; parameters: method as in Reeves et al., 1974, 1976; conditions: ref Reeves et al., 1974, 1976
E. histolytica = conditions: ref Valdez et al., 2002
tubulin = system: tubulin; parameters: method as in Valdez et al., 2002; conditions: ref Valdez et al., 2002
[1] = system: Encephalitozoon spp. and E. bieneusi; parameters: method as in Bacchi and Weiss, 2004; conditions: in vitro; ref Bacchi and Weiss, 2004
[2] = system: methionine aminopeptidase type 2(MetAP2); parameters: method as in Molina et al., 2002; conditions: E. cuniculi; non-competitive, irreversible; ref Molina et al., 2002
B. hominis [3] = system: B. hominis; parameters: method as in Nasirudeen et al., 2004; conditions: ref Nasirudeen et al., 2004
I. belli = conditions: ref Trier et al., 1974; Syrkis et al., 1975; Butler and De Boer, 1981; Weiss et al., 1988
human cells = conditions: ref Bendesky et al., 2002
B. hominis [4] = system: B. hominis; parameters: method as in Van Hellemond et al., 2013; conditions: in comparison to metronidazole; ref Van Hellemond et al., 2013
E. intestinalis [5] = system: E. intestinalis; parameters: method as in Menotti et al., 2005; Pozio and Morales, 2005; conditions: tissue culture, ref Menotti et al., 2005, Pozio and Morales
Carbamate kinase = system: Carbamate kinase; parameters: method as in Galkin et al., 2014; conditions: ref Galkin et al., 2014
giardiasis = system: giardiasis; parameters: method as in Galkin et al., 2014; conditions: mice; ref Galkin et al., 2014
cryptosporidiosis = system: cryptosporidiosis; parameters: method as in Mead, 2002; Gargala, 2008; conditions: ref Mead, 2002, Gargala, 2008
[6] = parameters: method as in Diaz et al., 2003; conditions: intestinal infection caused by C. cayetanensis; ref Diaz et al., 2003
microsporidia = system: microsporidia; parameters: method as in Didier et al., 2005; conditions: ref Didier et al., 2005
E. intestinalis [7] = conditions: ref John et al., 2005
[8] = system: Acyl-coenzyme-A synthetases; parameters: method as in Guo et al., 2014; conditions: cryptosporidial infection in mice; ref Guo et al., 2014

SMILES: O=P(O)(O)C(O)(Cn1ccnc1)P(=O)(O)O [CGP42446A]
- inhibition of PFK in E. histolytica (E. histolytica PPi-PFK): good inhibitors

SMILES: S=c1[nH]c2ccc(Cl)cc2[nH]1 [Compound 36, 5(6)-chloro-1H-benzimidazole-2-(3H)-thione]
- IC50 (E. histolytica): 5 nM
- IC50 (G. lamblia; in vitro, ref Valdez et al., 2002): 5 nM
- tubulin polymerization (tubulin): inhibits tubulin polymerization

SMILES: CO[C@@H]1[C@H](OC(=O)/C=C/C=C/C=C/C=C/C(=O)O)CC[C@]2(CO2)[C@H]1[C@@]1(C)O[C@@H]1CC=C(C)C [Fumagillin]
- activity against Encephalitozoon spp. and E. bieneusi [1]: potent
- MetAP2 inhibition [2]: potent inhibitor

SMILES: Cc1ncc([N+](=O)[O-])n1CCO [Metronidazole]
- programmed cell death (B. hominis [3]): induces programmed cell death
- cure of I. belli induced diarrhea (I. belli): cure the I. belli induced diarrhea but to lesser extent
- genotoxicity (human cells): genotoxic

SMILES: NC[C@@H]1O[C@H](O[C@H]2[C@@H](O)[C@H](O[C@@H]3[C@@H](O)[C@H](N)C[C@H](N)[C@H]3O[C@H]3O[C@H](CO)[C@@H](O)[C@H](O)[C@H]3N)O[C@@H]2CO)[C@H](N)[C@@H](O)[C@@H]1O [Paramomycin, paromomycin]
- performance against B. hominis infections (B. hominis [4]): superior performance in comparison to metronidazole

SMILES: CC(C)c1nc(CN(C)C(=O)N[C@H](C(=O)N[C@@H](Cc2ccccc2)C[C@H](O)[C@H](Cc2ccccc2)NC(=O)OCc2cncs2)C(C)C)cs1 [Ritonavir]
- growth of E. intestinalis (E. intestinalis [5]): inhibited the growth

- carbamate kinase inhibition (Carbamate kinase): inhibits this enzyme
SMILES: CCN(CC)C(=S)SSC(=S)N(CC)CC [disulfiram]
- effect on trophozoites (G. lamblia; ref Galkin et al., 2014): kills the trophozoites
- cure of giardiasis (giardiasis): cure of giardiasis in mice

SMILES: CC(C)(C)NC(=O)[C@@H]1CN(Cc2cccnc2)CCN1C[C@@H](O)C[C@@H](Cc1ccccc1)C(=O)N[C@H]1c2ccccc2C[C@H]1O [indinavir]
- growth of E. intestinalis (E. intestinalis [5]): inhibited the growth

SMILES: CC(=O)Oc1ccccc1C(=O)Nc1ncc([N+](=O)[O-])s1 [nitazoxanide]
- efficacy in cryptosporidiosis (cryptosporidiosis; immunocompetent patients): effective
- efficacy in cryptosporidiosis (cryptosporidiosis; immunocompromised patients): ineffective
- side effects [6]: no severe side effects

SMILES: CC1COc2c(N3CCN(C)CC3)c(F)cc3c(=O)c(C(=O)O)cn1c23 (stereo not drawn) [ofloxacin]
- antimicrosporidial activity (microsporidia): more than gatifloxacin (6), lomefloxacin (7), moxifloxacin (8), and nalidixic acid (9)

SMILES: O=[O+][O-] [ozone]
- killing of E. intestinalis (E. intestinalis [7]): kills

SMILES: CCC/C=C/C/C=C/C=C/C=N/NN=O [triacsin C]
- inhibition of acyl-coenzyme-A synthetases [8]: inhibited
